{
  "source": "PubChem BioAssay (NCI)",
  "test_in_all_cases": "NCI-60 cell line screen, 48 h",
  "key": {"DMS 273 small cell lung": {"system": "DMS 273 small cell lung"}, "HT29 colon": {"system": "HT29 colon"}, "KM12 colon": {"system": "KM12 colon"}, "LXFL 529 NSCLC": {"system": "LXFL 529 NSCLC"}, "NCI-H522 lung": {"system": "NCI-H522 lung"}, "PC-3 prostate": {"system": "PC-3 prostate"}, "SF-268 CNS": {"system": "SF-268 CNS"}, "SF-295 CNS": {"system": "SF-295 CNS"}, "SW-620 colon": {"system": "SW-620 colon"}, "U251 CNS": {"system": "U251 CNS"}},
  "note": "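Protocol summary: plate cells (96-well), add compound at 5 concentrations, incubate 48 h, interpolate endpoints linearly. TGI marks complete inhibition of growth.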",
  "data": [
    {"smiles": "O=P1(NCCCl)OCCCN1CCCl", "note": "(stereo not given)", "values": [
      {"measurement": "TGI", "setting": "DMS 273 small cell lung", "value": 410, "unit": "µM"},
      {"measurement": "TGI", "setting": "HT29 colon", "value": 448, "unit": "µM"},
      {"measurement": "TGI", "setting": "KM12 colon", "value": 448, "unit": "µM"},
      {"measurement": "TGI", "setting": "LXFL 529 NSCLC", "value": "> 500", "unit": "µM"},
      {"measurement": "TGI", "setting": "NCI-H522 lung", "value": 360, "unit": "µM"},
      {"measurement": "TGI", "setting": "PC-3 prostate", "value": "> 500", "unit": "µM"},
      {"measurement": "TGI", "setting": "SF-268 CNS", "value": 426, "unit": "µM"},
      {"measurement": "TGI", "setting": "SF-295 CNS", "value": 429, "unit": "µM"},
      {"measurement": "TGI", "setting": "SW-620 colon", "value": 401, "unit": "µM"},
      {"measurement": "TGI", "setting": "U251 CNS", "value": 431, "unit": "µM"}
    ]},
    {"smiles": "CS(=O)(=O)OCCN(CCOS(C)(=O)=O)c1ccc(C=Nc2ccc(-c3csc(COc4ccccc4)n3)cc2)cc1", "values": [
      {"measurement": "TGI", "setting": "DMS 273 small cell lung", "value": 14.5, "unit": "µM"},
      {"measurement": "TGI", "setting": "HT29 colon", "value": 23.6, "unit": "µM"},
      {"measurement": "TGI", "setting": "KM12 colon", "value": 19.8, "unit": "µM"},
      {"measurement": "TGI", "setting": "LXFL 529 NSCLC", "value": 25.3, "unit": "µM"},
      {"measurement": "TGI", "setting": "NCI-H522 lung", "value": 0.868, "unit": "µM"},
      {"measurement": "TGI", "setting": "PC-3 prostate", "value": 28.2, "unit": "µM"},
      {"measurement": "TGI", "setting": "SF-268 CNS", "value": 14.6, "unit": "µM"},
      {"measurement": "TGI", "setting": "SF-295 CNS", "value": 17.8, "unit": "µM"},
      {"measurement": "TGI", "setting": "SW-620 colon", "value": 52, "unit": "µM"},
      {"measurement": "TGI", "setting": "U251 CNS", "value": 25, "unit": "µM"}
    ]},
    {"smiles": "COc1ccc2c(c1)[C@@H](NC(C)=O)CCc1cc(OC)c(OC)c(OC)c1-2", "values": [
      {"measurement": "TGI", "setting": "DMS 273 small cell lung", "value": "> 100", "unit": "µM"},
      {"measurement": "TGI", "setting": "HT29 colon", "value": 0.124, "unit": "µM"},
      {"measurement": "TGI", "setting": "KM12 colon", "value": 0.039, "unit": "µM"},
      {"measurement": "TGI", "setting": "LXFL 529 NSCLC", "value": "> 100", "unit": "µM"},
      {"measurement": "TGI", "setting": "PC-3 prostate", "value": "> 4.75", "unit": "µM"},
      {"measurement": "TGI", "setting": "SF-268 CNS", "value": "> 90.4", "unit": "µM"},
      {"measurement": "TGI", "setting": "SF-295 CNS", "value": "< 0.215", "unit": "µM"},
      {"measurement": "TGI", "setting": "SW-620 colon", "value": "> 100", "unit": "µM"},
      {"measurement": "TGI", "setting": "U251 CNS", "value": 2.02, "unit": "µM"}
    ]},
    {"smiles": "O=C(O)/C=C/c1ccc(O)c(O)c1", "values": [
      {"measurement": "TGI", "setting": "DMS 273 small cell lung", "value": "> 100", "unit": "µM"},
      {"measurement": "TGI", "setting": "HT29 colon", "value": "> 100", "unit": "µM"},
      {"measurement": "TGI", "setting": "KM12 colon", "value": "> 100", "unit": "µM"},
      {"measurement": "TGI", "setting": "LXFL 529 NSCLC", "value": "> 100", "unit": "µM"},
      {"measurement": "TGI", "setting": "NCI-H522 lung", "value": "> 100", "unit": "µM"},
      {"measurement": "TGI", "setting": "PC-3 prostate", "value": "> 100", "unit": "µM"},
      {"measurement": "TGI", "setting": "SF-268 CNS", "value": "> 100", "unit": "µM"},
      {"measurement": "TGI", "setting": "SF-295 CNS", "value": "> 100", "unit": "µM"},
      {"measurement": "TGI", "setting": "SW-620 colon", "value": "> 76.3", "unit": "µM"},
      {"measurement": "TGI", "setting": "U251 CNS", "value": "> 100", "unit": "µM"}
    ]},
    {"smiles": "CC(=O)N1C/C(=C\\c2ccccc2)C(=O)/C(=C/c2ccccc2)C1", "values": [
      {"measurement": "TGI", "setting": "DMS 273 small cell lung", "value": 12.1, "unit": "µM"},
      {"measurement": "TGI", "setting": "HT29 colon", "value": 13.8, "unit": "µM"},
      {"measurement": "TGI", "setting": "KM12 colon", "value": 12.1, "unit": "µM"},
      {"measurement": "TGI", "setting": "LXFL 529 NSCLC", "value": 21.6, "unit": "µM"},
      {"measurement": "TGI", "setting": "NCI-H522 lung", "value": 27.9, "unit": "µM"},
      {"measurement": "TGI", "setting": "SF-268 CNS", "value": 66.1, "unit": "µM"},
      {"measurement": "TGI", "setting": "SF-295 CNS", "value": 26.9, "unit": "µM"},
      {"measurement": "TGI", "setting": "SW-620 colon", "value": 8.37, "unit": "µM"},
      {"measurement": "TGI", "setting": "U251 CNS", "value": 29.7, "unit": "µM"}
    ]},
    {"smiles": "CC(=O)OCC1C(=O)OCC1C(=O)N1Cc2cc3ccccc3nc2C1", "note": "(stereo not given)", "values": [
      {"measurement": "TGI", "setting": "DMS 273 small cell lung", "value": 17.8, "unit": "µM"},
      {"measurement": "TGI", "setting": "HT29 colon", "value": 10.3, "unit": "µM"},
      {"measurement": "TGI", "setting": "KM12 colon", "value": 30.4, "unit": "µM"},
      {"measurement": "TGI", "setting": "LXFL 529 NSCLC", "value": 5.22, "unit": "µM"},
      {"measurement": "TGI", "setting": "NCI-H522 lung", "value": 2.23, "unit": "µM"},
      {"measurement": "TGI", "setting": "PC-3 prostate", "value": 20.1, "unit": "µM"},
      {"measurement": "TGI", "setting": "SF-268 CNS", "value": 22.6, "unit": "µM"},
      {"measurement": "TGI", "setting": "SF-295 CNS", "value": 29.9, "unit": "µM"},
      {"measurement": "TGI", "setting": "SW-620 colon", "value": 1.68, "unit": "µM"},
      {"measurement": "TGI", "setting": "U251 CNS", "value": 24.9, "unit": "µM"}
    ]},
    {"smiles": "O=C(/C=C/c1ccccc1)NC1C=Nc2ccc([N+](=O)[O-])cc2NC1=O", "note": "(stereo not given)", "values": [
      {"measurement": "TGI", "setting": "DMS 273 small cell lung", "value": "> 100", "unit": "µM"},
      {"measurement": "TGI", "setting": "HT29 colon", "value": "> 100", "unit": "µM"},
      {"measurement": "TGI", "setting": "KM12 colon", "value": 86.7, "unit": "µM"},
      {"measurement": "TGI", "setting": "LXFL 529 NSCLC", "value": "> 100", "unit": "µM"},
      {"measurement": "TGI", "setting": "NCI-H522 lung", "value": "> 100", "unit": "µM"},
      {"measurement": "TGI", "setting": "SF-268 CNS", "value": "> 100", "unit": "µM"},
      {"measurement": "TGI", "setting": "SF-295 CNS", "value": "> 100", "unit": "µM"},
      {"measurement": "TGI", "setting": "SW-620 colon", "value": "> 100", "unit": "µM"},
      {"measurement": "TGI", "setting": "U251 CNS", "value": "> 100", "unit": "µM"}
    ]},
    {"smiles": "CN(C)CC1CC/C(=C\\c2ccc(Cl)c(Cl)c2)C1=O", "note": "(stereo not given)", "values": [
      {"measurement": "TGI", "setting": "DMS 273 small cell lung", "value": "> 51.9", "unit": "µM"},
      {"measurement": "TGI", "setting": "HT29 colon", "value": 54.4, "unit": "µM"},
      {"measurement": "TGI", "setting": "KM12 colon", "value": 35.7, "unit": "µM"},
      {"measurement": "TGI", "setting": "LXFL 529 NSCLC", "value": 27, "unit": "µM"},
      {"measurement": "TGI", "setting": "NCI-H522 lung", "value": 17.7, "unit": "µM"},
      {"measurement": "TGI", "setting": "SF-268 CNS", "value": "> 74.3", "unit": "µM"},
      {"measurement": "TGI", "setting": "SF-295 CNS", "value": "> 78.4", "unit": "µM"},
      {"measurement": "TGI", "setting": "SW-620 colon", "value": "> 51.6", "unit": "µM"},
      {"measurement": "TGI", "setting": "U251 CNS", "value": "> 56.5", "unit": "µM"}
    ]},
    {"smiles": "CC(C)(CN1CCCCC1)C(=O)/C=C/c1ccccc1", "values": [
      {"measurement": "TGI", "setting": "DMS 273 small cell lung", "value": 36.5, "unit": "µM"},
      {"measurement": "TGI", "setting": "HT29 colon", "value": 36.4, "unit": "µM"},
      {"measurement": "TGI", "setting": "KM12 colon", "value": 28.9, "unit": "µM"},
      {"measurement": "TGI", "setting": "LXFL 529 NSCLC", "value": 34.7, "unit": "µM"},
      {"measurement": "TGI", "setting": "NCI-H522 lung", "value": 26.8, "unit": "µM"},
      {"measurement": "TGI", "setting": "SF-268 CNS", "value": 36.8, "unit": "µM"},
      {"measurement": "TGI", "setting": "SF-295 CNS", "value": 35.1, "unit": "µM"},
      {"measurement": "TGI", "setting": "SW-620 colon", "value": 27.8, "unit": "µM"},
      {"measurement": "TGI", "setting": "U251 CNS", "value": 57, "unit": "µM"}
    ]}
  ]
}
